The target in experiment [1] is T1, Brd4BD2 (Homo sapiens, UniProt O60885).
T1 construct: Brd4BD2 (333–460); made in house; host or cells: E. coli BL21(DE3)
In words: ITC of PROTACs, binary titration with Brd4BD2. It is filed as binding. The note with it: PROTAC in cell, Brd4BD2 in syringe. An excerpt: (§1) structure (C2 R, C3 S, C4 R) assumed on the basis of unchanging stereogenic centres in the synthesis.
(§2) Final R(F) = 0.033, wR(F 2) = 0.085 for 275 parameters and 3901 reflections with I > 2σ(I) (corresponding R-values based on all 4067 reflections = 0.035 and 0.086, respectively), CCDC […]
(§3) Protein expression and purification.
(§4) Wild-type versions of human proteins VHL (UniProt accession number: P40337), ElonginC […]
(§5) expression. For expression of VBC, N-terminally His6-tagged VHL (54–213), ElonginC (17–112) and ElonginB (1–104) were co- expressed in Escherichia coli BL21(DE3) at 24 °C for 16 h using 0.3 mM isopropyl β-D -1-thiogalactopyranoside (IPTG). E. coli cells were lysed using a pressure cell homogenizer (Stansted Fluid Power) and lysate clarified by centrifugation. His6-tagged VCB was purified on a HisTrap FF affinity column (GE Healthcare) by elution with an imidazole gradient. The His6tag was removed using TEV protease and the untagged complex dialyzed into low -concentration imidazole buffer. VCB was then flowed through the HisTrap FF column a second time, allowing impurities to bind, as the complex eluted without binding. VCB was then additionally purified by anion exchange and size-exclusion chromatography using ResourceQ and Superdex-75 columns (GE Healthcare), respectively. The final purified complex was stored in 20 mM Bis–Tris, pH 7, 150 mM sodium chloride and 1 mM dithiothreitol (DTT). Brd2BD1 (71–194), and Brd4BD2 (333–460) were expressed with an N-terminal His6 tag in E. coli BL21(DE3) at 18 °C for 20 h using 0.2 mM IPTG.
(§6) His6-tagged BDs were purified on nickel Sepharose 6 fast flow beads (GE Healthcare) by elution with increasing concentrations of imidazole. For crystallography the His6-tagged BD was cleaved with TEV protease and dialyzed into low-concentration imidazole buffer. The BD was then flowed over the nickel beads a second time to remove impurities and protease. BDs were then additionally purified by size-exclusion chromatography using a Superdex-75 column. The BDs were purified by size-exclusion chromatography using a Superdex-75 column. The final purified proteins were stored in 20 mM 4-(2-hydroxyethyl)-1-piperazineethanesulfonic acid (HEPES), pH 7.5, 150 mM sodium chloride and 1 mM DTT. All chromatography purification steps were performed using Äkta FPLC purification systems (GE Healthcare) or glass econo-columns (Bio-Rad) at room temperature.
(§7) Isothermal titration calorimetry (ITC) of peptides and ligands
(§8) Titrations were performed on an ITC200 micro-calorimeter (GE Healthcare). The peptides were dissolved in buffer (20 mM Bis–Tris propane, 100 mM NaCl, 1 mM tris(2-carboxyethyl)phosphine […]
(§9) (TCEP), pH 7.4) at 100 µM. The compounds were titrated against 10 µM VBC complex, equilibrated in the same buffer. The titrations consisted of 20 injections of 2 µL of peptide solution at a rate of 0.5 µL/s at 120 s time intervals. An initial injection of ligand (0.4 µL) was made and discarded during data analysis. All experiments were performed at 25°C while stirring at 650 rpm.
(§10) Ligands 14a- b were diluted from DMSO stock solution to 300 µM in buffer (20 mM Bis-Tris propane, 150 mM NaCl, 1 mM TCEP, pH 7.4). The compounds were titrated against 30 µM VBC complex, equilibrated in the same buffer. The final concentration of DMSO in each experiment was […]
(§11) The data were fitted to a single-binding-site model using the MicroCal PEAQ-ITC analysis software provided by the manufacturer to obtain the stoichiometry n, the dissociation constant K d, and the enthalpy of binding ΔH . The reported values are the mean ± s.e.m. from independent measurements.
(§12) Isothermal titration calorimetry (ITC)of PROTACs
(§13) The titrations were all performed as reverse mode (protein in syringe, ligand in cell) and consisted of 19 injections of 2 µl protein solution (20 mM Bis–Tris propane, 100 mM NaCl, 1 mM tris(2-carboxyethyl)phosphine (TCEP), pH 7.4) at a rate of 0.5 µl/s at 120 s time intervals. An initial injection (0.4 µl) was made and discarded during data analysis. […]

Experiment [2] addresses T2, Brd2BD1 (Homo sapiens, UniProt P25440).
T2 construct: Brd2BD1 (71–194),; made in house; host or cells: E. coli BL21(DE3)
In words: ITC of PROTACs, binary titration with Brd2BD1. In kind it is binding. The note with it: PROTAC in cell, Brd2BD1 in syringe.
Description: as §1, §2, §3, §4, §5, §6, §7, §8, §9, §10, §11, §12, §13

The target in experiment [3] is T3, VBC and Brd4BD2 (Homo sapiens, UniProt O60885+P40337).
T3 construct: VHL (54–213), ElonginC (17–112) and; Brd4BD2 (333–460); His6 (N, cleaved yes); made in house; host or cells: E. coli BL21(DE3)
In words: ITC ternary complex formation, VBC titrated into PROTAC:Brd4BD2. The conditions noted are these: for α (cooperativity): Kd binary,VBC/Kd ternary; for α (cooperativity) / ΔΔG: Brd4BD2; for Kd / ΔG / ΔH / –TΔS: PROTAC:Brd4BD2 in cell, VBC in syringe; for ΔΔG: ternary vs binary. It is filed as binding.
Description: as §1, §2, §3, §4, §5, §6, §7, §8, §9, §10, §11, §12, §13

Experiment [4] has as its system A549 cells. In words: A549 colony-formation assay. It is filed as cell-based. The note with it: 7 days, crystal violet. On the procedure: A549 Colony-Formation Assay
A549 cells were seeded in clear, Nunc™ Edge 2.0 96 -w ell plates (Thermo Scientific) at 1000 cells per well and incubated at 37°C in DMEM. After 24 h cells were treated with test compounds from 10 µM to 100 nM , with a final DM SO of 0.1%. The cells were left to grow until DM SO -treated wells reached ~100% confluence (~8 days), at which point they were washed with PBS, fixed with 100% MeOH (30 min 4°C), stained with 0.1% crystal violet (30 min at r.t.) and left to dry overnight. Once dried plates were imaged on an Epson Perfection V800 scanner, at a resolution of 1200 DPI and in 48 -bit colour.
For dose-response curves, crystal-violet dye was extracted by the addition of 200 µl 1% SDS to each well, and incubation for 3 h at r.t. The absorbance at 595nm of each well was measured on a Pherastar FS (BMG), normalised for each compound and plotted against compound concentration.
(1 picture or pasted object on this page, not shown here)

T2 sequence (P25440 71-194): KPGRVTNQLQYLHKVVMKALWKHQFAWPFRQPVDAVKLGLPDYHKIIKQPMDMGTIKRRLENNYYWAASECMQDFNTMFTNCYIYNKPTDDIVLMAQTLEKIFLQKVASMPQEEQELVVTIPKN

Consider `Cc1ncsc1-c1ccc(CNC(=O)[C@@H]2[C@@H](F)[C@@H](O)CN2C(=O)[C@@H](NC(=O)COCCOCCOCCNC(=O)C[C@@H]2N=C(c3ccc(Cl)cc3)c3c(sc(C)c3C)-n3c(C)nnc32)C(C)(C)C)cc1` [15a], for which, in experiment [1], binding was put at a Kd of 28 ± 2 nM, the ΔG is -10.30 kcal/mol, the ΔH is given as -10.4 ± 0.8 kcal/mol and the “–TΔS” value was 0.1 ± 0.6 kcal/mol. Besides, in experiment [2], the dissociation constant Kd was found to be 97 ± 0.6 nM, the ΔG is -9.57 ± 0.01 kcal/mol, the ΔH was -13.7 ± 0.3 kcal/mol and the “–TΔS” value is listed as 4.2 ± 0.3 kcal/mol. In experiment [3], the “α (cooperativity)” value is listed as 9.5, the dissociation constant (Kd) came to 26 ± 5 nM, the ΔG is -10.13 kcal/mol and the ΔH was -10.9 ± 0.7 kcal/mol. Further, in experiment [3], the “–TΔS” value is on record as -0.6 ± 0.4 kcal/mol and the ΔΔG is given as -1.12 kcal/mol. For the same compound, in experiment [4], the “effect on cell growth, colony formation (in words)” value is recorded as “profound concentration-dependent cytotoxicity”.
Consider `Cc1ncsc1-c1ccc(CNC(=O)[C@@H]2[C@H](F)[C@@H](O)CN2C(=O)[C@@H](NC(=O)COCCOCCOCCNC(=O)C[C@@H]2N=C(c3ccc(Cl)cc3)c3c(sc(C)c3C)-n3c(C)nnc32)C(C)(C)C)cc1` [15b], for which, in experiment [1], binding was put at a Kd of 32 ± 3 nM, the ΔG is recorded as -10.3 ± 0.1 kcal/mol, the ΔH was -9.3 ± 0.4 kcal/mol and the “–TΔS” value is reported as -0.9 ± 0.4 kcal/mol. For the same compound, in experiment [2], the dissociation constant Kd is 111 ± 6 nM, the ΔG is recorded as -9.49 ± 0.03 kcal/mol, the ΔH is -14.1 ± 0.6 kcal/mol and the “–TΔS” value came out at 4.9 ± 0.6 kcal/mol. In addition, in experiment [3], the “α (cooperativity)” value was determined as 14.5, the equilibrium dissociation constant (Kd) turned out to be 42 ± 6 nM, the ΔG was -10.01 kcal/mol and the ΔH is listed as -7.75 kcal/mol. Further, in experiment [3], the “–TΔS” value is listed as -2.34 kcal/mol and the ΔΔG is -1.6 ± 0.1 kcal/mol. Also, the “effect on cell growth, colony formation (in words)” value in experiment [4] is “affected cell growth only modestly”.

The values above are taken from article PMC6430500, “3-Fluoro-4-hydroxyprolines: Synthesis, Conformational Analysis, and Stereoselective Recognition by the VHL E3 Ubiquitin Ligase for Targeted Protein Degradation” (Journal of the American Chemical Society, 2018).
